Experimental findings from patent publication US10668067B2, “Pyridine sulfonamides” (AMGEN INC., priority 2016, dated 2020) are described below.

Each structure is given as a SMILES string.

The target in the assay is human Nav1.7 (Homo sapiens (Human), UniProt Q15858). Description: Nav 1.7 In Vitro PX Assay (PatchXpress whole cell voltage clamp). Format: cell-based. Particulars: in-vitro Nav 1.7 PX data. On the procedure: HEK 293 cells stably transfected with human Nav1.7 were recorded in whole cell voltage clamp mode with the PatchXpress automated electrophysiology system (Molecular Devices, LLC, Sunnyvale, Calif.). Compound effects were measured on a partially inactivated state of the sodium channel. Cells were clamped to a holding potential yielding 20 to 50% inactivation. To elicit sodium current, channels were activated by pulsing to −10 mV for 20 msec. This voltage protocol was repeated at a rate of 0.1 Hz throughout the experiment. A single concentration of test compound was applied to cells for a duration of 3 minutes. Peak sodium current was measured at the end of the compound addition period to determine percent inhibition. Three to five cells were tested per concentration, and IC50 curves were fitted to percent inhibition as a function of concentration.
Chain of human Nav1.7 (Q15858 whole entry): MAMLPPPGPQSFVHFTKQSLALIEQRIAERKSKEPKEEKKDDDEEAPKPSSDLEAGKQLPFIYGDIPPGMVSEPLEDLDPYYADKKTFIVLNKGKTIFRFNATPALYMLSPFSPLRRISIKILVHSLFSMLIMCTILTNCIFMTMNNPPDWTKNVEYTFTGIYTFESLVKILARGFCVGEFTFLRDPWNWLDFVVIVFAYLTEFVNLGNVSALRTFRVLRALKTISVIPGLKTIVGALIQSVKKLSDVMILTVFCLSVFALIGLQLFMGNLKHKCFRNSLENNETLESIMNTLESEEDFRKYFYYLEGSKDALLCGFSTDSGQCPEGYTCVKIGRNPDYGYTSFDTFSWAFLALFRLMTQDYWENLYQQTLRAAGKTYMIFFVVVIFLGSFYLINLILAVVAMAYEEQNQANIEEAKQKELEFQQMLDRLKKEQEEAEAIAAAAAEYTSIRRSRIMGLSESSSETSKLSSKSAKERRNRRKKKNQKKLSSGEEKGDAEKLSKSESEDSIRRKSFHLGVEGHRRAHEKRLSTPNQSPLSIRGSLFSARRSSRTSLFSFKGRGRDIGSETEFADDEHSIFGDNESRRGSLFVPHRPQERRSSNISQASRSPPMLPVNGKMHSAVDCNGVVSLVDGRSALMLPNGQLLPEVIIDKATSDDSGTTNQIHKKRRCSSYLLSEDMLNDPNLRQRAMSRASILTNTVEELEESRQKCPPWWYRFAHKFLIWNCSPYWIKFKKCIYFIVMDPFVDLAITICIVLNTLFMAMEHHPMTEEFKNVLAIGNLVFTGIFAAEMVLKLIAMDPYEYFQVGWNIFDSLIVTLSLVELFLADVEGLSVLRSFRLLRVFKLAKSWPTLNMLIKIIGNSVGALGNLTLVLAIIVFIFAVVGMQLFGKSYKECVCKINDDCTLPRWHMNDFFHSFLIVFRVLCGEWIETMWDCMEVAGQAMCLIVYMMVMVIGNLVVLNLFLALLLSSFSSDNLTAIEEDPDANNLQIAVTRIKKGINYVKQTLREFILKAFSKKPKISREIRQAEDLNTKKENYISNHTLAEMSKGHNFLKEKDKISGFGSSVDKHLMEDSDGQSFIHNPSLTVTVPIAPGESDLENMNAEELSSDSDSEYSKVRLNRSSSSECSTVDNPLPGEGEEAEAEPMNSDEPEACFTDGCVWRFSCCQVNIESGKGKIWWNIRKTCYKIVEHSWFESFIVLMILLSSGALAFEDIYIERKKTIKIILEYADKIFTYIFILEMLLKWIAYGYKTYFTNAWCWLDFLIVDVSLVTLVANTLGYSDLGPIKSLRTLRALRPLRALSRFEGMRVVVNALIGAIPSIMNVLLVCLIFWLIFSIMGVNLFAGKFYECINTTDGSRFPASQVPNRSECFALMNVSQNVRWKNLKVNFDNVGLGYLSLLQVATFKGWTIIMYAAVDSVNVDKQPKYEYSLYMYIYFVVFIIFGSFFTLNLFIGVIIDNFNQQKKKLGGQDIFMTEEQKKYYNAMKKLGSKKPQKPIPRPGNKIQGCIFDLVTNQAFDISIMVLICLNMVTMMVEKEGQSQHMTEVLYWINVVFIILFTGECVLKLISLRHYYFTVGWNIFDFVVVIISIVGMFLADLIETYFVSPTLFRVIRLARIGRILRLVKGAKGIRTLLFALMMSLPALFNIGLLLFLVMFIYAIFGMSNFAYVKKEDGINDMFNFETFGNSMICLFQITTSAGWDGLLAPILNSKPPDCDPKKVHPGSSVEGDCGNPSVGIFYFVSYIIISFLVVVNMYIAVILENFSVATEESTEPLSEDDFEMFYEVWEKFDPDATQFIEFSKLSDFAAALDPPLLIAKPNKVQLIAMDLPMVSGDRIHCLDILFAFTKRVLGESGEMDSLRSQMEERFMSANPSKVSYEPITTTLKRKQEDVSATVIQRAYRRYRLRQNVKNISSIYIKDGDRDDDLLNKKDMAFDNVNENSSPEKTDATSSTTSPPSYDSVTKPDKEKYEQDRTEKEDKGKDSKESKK
A word on the IC50: it is the concentration that inhibits the measured activity by half. For the compound `CNC(=O)N(c1ccc(S(=O)(=O)Nc2ccon2)cn1)c1cc(F)c(-c2cccc(OC)c2)cc1OC` [Example 1-8, 6-((2-fluoro-3′,5-dimethoxy-4-biphenylyl)(methylcarbamoyl)amino)-N-3-isoxazolyl-3-pyridinesulfonamide], the midpoint of inhibition, the IC50, lay at 206 nM.

Turning to `CNC(=O)N(c1ccc(S(=O)(=O)Nc2ncccn2)cn1)c1cc(Cl)c(-c2ccc(F)c(F)c2)cc1OC` [Example 1-76, 6-((2-chloro-3′,4′-difluoro-5-methoxy-4-biphenylyl)(methylcarbamoyl)amino)-N-2-pyrimidinyl-3-pyridinesulfonamide], the midpoint of inhibition, the IC50, lay at 116 nM.

In the case of `CNC(=O)N(c1ccc(S(=O)(=O)Nc2ncccn2)cn1)c1cc(Cl)c(-c2ccc(F)c(OCC(F)(F)F)c2)cc1OC` [Example 3-1, 6-((2-chloro-4′-fluoro-5-methoxy-3′-(2,2,2-trifluoroethoxy)-4-biphenylyl)(methylcarbamoyl)amino)-N-2-pyrimidinyl-3-pyridinesulfonamide], the IC50 was 33 nM.

In turn, `CNC(=O)N(c1ccc(S(=O)(=O)Nc2ccon2)cn1)c1cc(F)c(-c2ccc(F)c(F)c2)cc1OC` [Example 1-22, N-3-isoxazolyl-6-((methylcarbamoyl)(2,3′,4′-trifluoro-5-methoxy-4-biphenylyl)amino)-3-pyridinesulfonamide] displayed an IC50 of 199 nM.

Turning to `CNC(=O)N(c1ccc(S(=O)(=O)Nc2cccnn2)cn1)c1cc(Cl)c(-c2cc(OC)nc(C(F)(F)F)c2)cc1OC` [Example 2-6, 6-((5-chloro-2-methoxy-4-(2-methoxy-6-(trifluoromethyl)-4-pyridinyl)phenyl)(methylcarbamoyl)amino)-N-3-pyridazinyl-3-pyridinesulfonamide], the IC50 turned out to be 26 nM.

On to `CNC(=O)N(c1ccc(S(=O)(=O)Nc2ccon2)cn1)c1cc(Cl)c(-c2cc(F)c(F)c(OC)c2)cc1OC` [Example 1-68, 6-((2-chloro-3′,4′-difluoro-5,5′-dimethoxy-4-biphenylyl)(methylcarbamoyl)amino)-N-3-isoxazolyl-3-pyridinesulfonamide], for which 23 nM corresponded to half-maximal inhibition (IC50).

As for `CNC(=O)N(c1ccc(S(=O)(=O)Nc2ncccn2)cn1)c1ccc(-c2ccc(F)c(C(F)(F)F)c2)cc1OC` [Example 2-8, 6-((4′-fluoro-3-methoxy-3′-(trifluoromethyl)-4-biphenylyl)(methylcarbamoyl)amino)-N-2-pyrimidinyl-3-pyridinesulfonamide], it took 17 nM to reach half-maximal inhibition (IC50).

`CNC(=O)N(c1ccc(S(=O)(=O)Nc2ccon2)cn1)c1cc(F)c(-c2ccc(Cl)c(C(F)(F)F)c2)cc1OC` [Example 1-11, 6-((4′-chloro-2-fluoro-5-methoxy-3′-(trifluoromethyl)-4-biphenylyl)(methylcarbamoyl)amino)-N-3-isoxazolyl-3-pyridinesulfonamide]: the IC50 is 14 nM.

As to `COc1cc(-c2cc(Cl)cc(C#N)c2)c(Cl)cc1N(C(N)=O)c1ccc(S(=O)(=O)Nc2ccon2)cn1` [Example 5-3, 6-(carbamoyl(2,3′-dichloro-5′-cyano-5-methoxy-4-biphenylyl)amino)-N-3-isoxazolyl-3-pyridinesulfonamide], half-maximal inhibition (IC50) required 31 nM.

In turn, `CNC(=O)N(c1ccc(S(=O)(=O)Nc2ccon2)cn1)c1cc(F)c(-c2ccc(F)c(C(F)(F)F)c2)cc1OC` [Example 1-26, 6-((2,4′-difluoro-5-methoxy-3′-(trifluoromethyl)-4-biphenylyl)(methylcarbamoyl)amino)-N-3-isoxazolyl-3-pyridinesulfonamide] came in with an IC50 of 12 nM.

`CNC(=O)N(c1ccc(S(=O)(=O)Nc2ncco2)cn1)c1cc(Cl)c(-c2ccc(F)c(OCC(F)(F)F)c2)cc1OC` [Example 3-4, 6-((2-chloro-4′-fluoro-5-methoxy-3′-(2,2,2-trifluoroethoxy)-4-biphenylyl)(methylcarbamoyl)amino)-N-1,3-oxazol-2-yl-3-pyridinesulfonamide] registered an IC50 of 53 nM.

Turning to `CNC(=O)N(c1ccc(S(=O)(=O)Nc2ccon2)cc1)c1cc(F)c(-c2ccc(F)c(OC(F)(F)F)c2)cc1OC` [Example 10, 4-(1-(2,4′-difluoro-5-methoxy-3′-(trifluoromethoxy)-[1,1′-biphenyl]-4-yl)-3-methylureido)-N-(isoxazol-3-yl)benzenesulfonamide], the 50% inhibitory concentration (IC50) came out at 210 nM.

`CNC(=O)N(c1ccc(S(=O)(=O)Nc2ccon2)cn1)c1cc(-c2ccc(C)c(Cl)c2)ccc1OC` [Example 4-5, 6-((3′-chloro-4-methoxy-4′-methyl-3-biphenylyl)(methylcarbamoyl)amino)-N-3-isoxazolyl-3-pyridinesulfonamide] had an IC50 of 442 nM.

The compound `CNC(=O)N(c1ccc(S(=O)(=O)Nc2ccon2)cn1)c1cc(Cl)c(-c2cc(OC(F)(F)F)ccc2OC)cc1OC` [Example 1-56, 6-((2-chloro-2′,5-dimethoxy-5′-(trifluoromethoxy)-4-biphenylyl)(methylcarbamoyl)amino)-N-3-isoxazolyl-3-pyridinesulfonamide] showed an IC50 of 19 nM.

Consider `CNC(=O)N(c1ccc(S(=O)(=O)Nc2ccon2)cn1)c1cc(Cl)c(-c2cc(C(F)(F)F)cnc2OC)cc1OC` [Example 1-40, 6-((5-chloro-2-methoxy-4-(2-methoxy-5-(trifluoromethyl)-3-pyridinyl)phenyl)(methylcarbamoyl)amino)-N-3-isoxazolyl-3-pyridinesulfonamide], for which the IC50 was found to be 32 nM.

`CNC(=O)N(c1ccc(S(=O)(=O)Nc2ccon2)cn1)c1cc(-c2cccc(C(F)(F)F)c2)c(Cl)cc1OC` [Example 4-6, 6-((6-chloro-4-methoxy-3′-(trifluoromethyl)-3-biphenylyl)(methylcarbamoyl)amino)-N-3-isoxazolyl-3-pyridinesulfonamide]: the IC50 was 90 nM.

`CNC(=O)N(c1ccc(S(=O)(=O)Nc2cccnn2)cn1)c1cc(F)c(-c2ccc(F)c(OC(F)(F)F)c2)cc1OC` [Example 3-13, 6-((2,4′-difluoro-5-methoxy-3′-(trifluoromethoxy)-4-biphenylyl)(methylcarbamoyl)amino)-N-3-pyridazinyl-3-pyridinesulfonamide] displayed an IC50 of 7 nM.

For the compound `CNC(=O)N(c1ccc(S(=O)(=O)Nc2ncccn2)cn1)c1cc(Cl)c(-c2cc(OC)cc(OC)c2)cc1OC` [Example 1-79, 6-((2-chloro-3′,5,5′-trimethoxy-4-biphenylyl)(methylcarbamoyl)amino)-N-2-pyrimidinyl-3-pyridinesulfonamide], half-maximal inhibition (IC50) required 166 nM.

Consider `CNC(=O)N(c1ccc(S(=O)(=O)Nc2ncco2)cn1)c1cc(Cl)c(-c2ccc(F)c(C(F)(F)F)c2)cc1OC` [Example 3-10, 6-((2-chloro-4′-fluoro-5-methoxy-3′-(trifluoromethyl)-4-biphenylyl)(methylcarbamoyl)amino)-N-1,3-oxazol-2-yl-3-pyridinesulfonamide], for which the IC50 came out at 20 nM.

The compound `CNC(=O)N(c1ccc(S(=O)(=O)Nc2ccon2)cn1)c1cc(-c2cccc(F)c2)ccc1OC` [Example 4-3, 6-((3′-fluoro-4-methoxy-3-biphenylyl)(methylcarbamoyl)amino)-N-3-isoxazolyl-3-pyridinesulfonamide] registered an IC50 of 2370 nM.

Regarding `CNC(=O)N(c1ccc(S(=O)(=O)Nc2cccc(F)n2)cn1)c1cc(Cl)c(-c2ccc(F)c(OCC(F)(F)F)c2)cc1OC` [Example 3-3, 6-((2-chloro-4′-fluoro-5-methoxy-3′-(2,2,2-trifluoroethoxy)-4-biphenylyl)(methylcarbamoyl)amino)-N-(6-fluoro-2-pyridinyl)-3-pyridinesulfonamide], the IC50 amounted to 73 nM.

The compound `CNC(=O)N(c1ccc(S(=O)(=O)Nc2ccon2)cn1)c1cc(Cl)c(-c2cccc(OC(F)(F)F)c2)cc1OC` [Example 1-39, 6-((2-chloro-5-methoxy-3′-(trifluoromethoxy)-4-biphenylyl)(methylcarbamoyl)amino)-N-3-isoxazolyl-3-pyridinesulfonamide] showed an IC50 of 11 nM.

`CNC(=O)N(c1ccc(S(=O)(=O)Nc2ccon2)cn1)c1cc(F)c(-c2cc(Cl)c(F)c(OC)c2)cc1OC` [Example 1-25, 6-((3′-chloro-2,4′-difluoro-5,5′-dimethoxy-4-biphenylyl)(methylcarbamoyl)amino)-N-3-isoxazolyl-3-pyridinesulfonamide] returned an IC50 of 16 nM.

`CNC(=O)N(c1ccc(S(=O)(=O)Nc2ccon2)cn1)c1cc(-c2cc(Cl)cc(OC)c2)c(Cl)cc1OC` [Example 4-8, 6-((3′,6-dichloro-4,5′-dimethoxy-3-biphenylyl)(methylcarbamoyl)amino)-N-3-isoxazolyl-3-pyridinesulfonamide]: half-maximal inhibition (IC50) required 81 nM.

As for `CNC(=O)N(c1ccc(S(=O)(=O)Nc2cccnn2)cn1)c1cc(Cl)c(-c2ccc(F)c(OCC(F)(F)F)c2)cc1OC` [Example 2-4, 6-((2-chloro-4′-fluoro-5-methoxy-3′-(2,2,2-trifluoroethoxy)-4-biphenylyl)(methylcarbamoyl)amino)-N-3-pyridazinyl-3-pyridinesulfonamide], it took 54 nM to reach half-maximal inhibition (IC50).

As to `CNC(=O)N(c1ccc(S(=O)(=O)Nc2ccon2)cn1)c1ccc(-c2cc(F)cc(Cl)c2)cc1OC` [Example 1-74, 6-((3′-chloro-5′-fluoro-3-methoxy-4-biphenylyl)(methylcarbamoyl)amino)-N-3-isoxazolyl-3-pyridinesulfonamide], half-maximal inhibition (IC50) required 84 nM.

In turn, `CNC(=O)N(c1ccc(S(=O)(=O)Nc2ccon2)cn1)c1cc(F)c(-c2ccc(Cl)c(OC)c2)cc1OC` [Example 1-35, 6-((4′-chloro-2-fluoro-3′,5-dimethoxy-4-biphenylyl)(methylcarbamoyl)amino)-N-3-isoxazolyl-3-pyridinesulfonamide] displayed an IC50 of 185 nM.

As for `CNC(=O)N(c1ccc(S(=O)(=O)Nc2ccon2)cn1)c1cc(-c2cc(F)cc(Cl)c2)ccc1OC` [Example 4-4, 6-((3′-chloro-5′-fluoro-4-methoxy-3-biphenylyl)(methylcarbamoyl)amino)-N-3-isoxazolyl-3-pyridinesulfonamide], the midpoint of inhibition, the IC50, lay at 173 nM.
